Measurements taken from patent publication US20230021483A1, “[…] […] METHOD AND CLASSIFICATION OF PHARMACEUTICAL COMPONENTS BY USING TRANSCRIPTOMES” (National Institutes of Biomedical Innovation, Health and …, priority 2016, published 2023).

System: adjuvant-associated biological themes in LV, SP, LN
Settings: LV, ID
Text: A defined sets of genes were selected according to specified criteria (e.g., FC, PA-call, threshold values). Their functional enrichment values were then obtained from TargetMine (Chen, Y. A., Tripathi, L. P. & Mizuguchi, K. PloS one 6, e17844 (2011)) (http://targetmine.mizuguchilab.org/) using the API interface. The following resources were used throughout the analysis via TargetMine Interface (GO, GOSlim, Integrated Pathway, KEGG, Reactome, and the NCI pathway). The Holm-Bonferroni method was used for multiple testing corrections.
Whole organ transcriptome data for each organ from each mouse were analyzed as follows to obtain biological themes for individual samples from each adjuvant-administered group of three mice. […] A set of Pj genes was first defined, where eij/ei(c)>2.0. Biological themes enriched within Pj were then identified using TargetMine (Chen, Y. A. et al., PloS one 6, e17844 (2011)) (http://targetmine.mizuguchilab.org/). Tj denote the resulting list of biological themes, with associated p-values from Fischer's exact test.
Next, the biological themes called by all the individual samples in the group were scored as follows. Having obtained three lists (T1, T2 and T3) for a given experimental condition, a consensus list T of themes was created as T={(t1, p1), (t2, p2), . . . }, where ti is a biological theme that appears in all of T1, T2 and T3, and pi is the smallest of the associated p-values. Only the themes with the p-value of <0.05 were included in T.
To summarize the biological themes in T further, a list of terms considered to be associated with adjuvant activity in general was separately prepared. AT={at1, at2, . . . }, where ati is a pre-selected adjuvant-associated term (e.g., “stress” or “cytokine”). Finally, an enrichment score S for an adjuvant-associated term ati was defined as: S(ati)=Σ−log(pj), where the name of tj in T includes a term ati as a substring and pj is the associated p-value.
This scoring scheme summarizes the relative enrichment of pre-selected adjuvant-associated terms in genes responding to each adjuvant in each organ.

## Poly_IC
  IFN alpha, GO annotation line 1 of 5: 13.3
  IFN alpha, GO annotation line 2 of 5: 4.7
  IFN alpha: cellular response to interferon-alpha: 4.95
  IFN alpha: positive regulation of interferon-alpha production: 5.95
  IFN alpha: regulation of interferon-alpha production: 5.3
  IFN beta: cellular response to interferon-beta: 17.2
  IFN beta: interferon-beta production: 9.35
  IFN beta: positive regulation of interferon-beta production: 8.94
  IFN beta: regulation of interferon-beta production: 7.54
  IFN beta: response to interferon-beta: 23
  IFN gamma: cellular response to interferon-gamma: 10.5
  IFN gamma: interferon-gamma production: 5.43
  IFN gamma: regulation of interferon-gamma production: 5.32
  IFN gamma: response to interferon-gamma: 22.3
  NF-kappa B signaling pathway, GO annotation line 1 of 4: 18
  NF-kappa B signaling pathway, GO annotation line 2 of 4: 13.5
  NF-kappa B signaling pathway, GO annotation line 3 of 4: 8.57
  NF-kappa B signaling pathway, GO annotation line 4 of 4: 9.04
  TNF signaling pathway: 22.1
  adaptive immune response, GO annotation line 1 of 5: 11.9
  adaptive immune response, GO annotation line 2 of 5: 13
  adaptive immune response, GO annotation line 3 of 5: 7.16
  adaptive immune response, GO annotation line 4 of 5: 6.84
  adaptive immune response, GO annotation line 5 of 5: 0
  apoptosis, GO annotation line 1 of 8: 15.7
  apoptosis, GO annotation line 2 of 8: 14.8
  apoptosis, GO annotation line 3 of 8: 12.4
  apoptosis, GO annotation line 4 of 8: 7.32
  apoptosis, GO annotation line 5 of 8: 3.59
  apoptosis, GO annotation line 6 of 8: 7.04
  apoptosis, GO annotation line 7 of 8: 4.79
  apoptosis, GO annotation line 8 of 8: 0
  cell death, GO annotation line 1 of 9: 22.6
  cell death, GO annotation line 2 of 9: 17.8
  cell death, GO annotation line 3 of 9: 18.1
  cell death, GO annotation line 4 of 9: 15.4
  cell death, GO annotation line 5 of 9: 15.6
  cell death, GO annotation line 6 of 9: 4.25
  cell death, GO annotation line 7 of 9: 3.46
  cell death, GO annotation line 8 of 9: 4.38
  cell death, GO annotation line 9 of 9: 4.89
  chemokine, GO annotation line 1 of 4: 6.25
  chemokine, GO annotation line 2 of 4: 7.84
  chemokine, GO annotation line 3 of 4: 9.13
  chemokine, GO annotation line 4 of 4: 9
  chemotaxis, GO annotation line 1 of 11: 20.7
  chemotaxis, GO annotation line 2 of 11: 6.87
  chemotaxis, GO annotation line 3 of 11: 22
  chemotaxis, GO annotation line 4 of 11: 13.1
  chemotaxis, GO annotation line 5 of 11: 6.8
  chemotaxis, GO annotation line 6 of 11: 7.42
  chemotaxis, GO annotation line 7 of 11: 7.6
  chemotaxis, GO annotation line 8 of 11: 8.31
  chemotaxis, GO annotation line 9 of 11: 9.92
  chemotaxis, GO annotation line 10 of 11: 6.5
  chemotaxis, GO annotation line 11 of 11: 3.15
  cytokine, GO annotation line 1 of 17: 66.1
  cytokine, GO annotation line 2 of 17: 48.5
  cytokine, GO annotation line 3 of 17: 42.3
  cytokine, GO annotation line 4 of 17: 12.1
  cytokine, GO annotation line 5 of 17: 45.6
  cytokine, GO annotation line 6 of 17: 43.5
  cytokine, GO annotation line 7 of 17: 20.9
  cytokine, GO annotation line 8 of 17: 7.3
  cytokine, GO annotation line 9 of 17: 8.4
  cytokine, GO annotation line 10 of 17: 34.3
  cytokine, GO annotation line 11 of 17: 12.6
  cytokine, GO annotation line 12 of 17: 4.18
  cytokine, GO annotation line 13 of 17: 15
  cytokine, GO annotation line 14 of 17: 14.5
  cytokine, GO annotation line 15 of 17: 3.4
  cytokine, GO annotation line 16 of 17: 3.66
  cytokine, GO annotation line 17 of 17: 5.29
  defense response, GO annotation line 1 of 11: 90.6
  defense response, GO annotation line 2 of 11: 57.5
  defense response, GO annotation line 3 of 11: 41.3
  defense response, GO annotation line 4 of 11: 48.9
  defense response, GO annotation line 5 of 11: 15.8
  defense response, GO annotation line 6 of 11: 6.93
  defense response, GO annotation line 7 of 11: 4.67
  defense response, GO annotation line 8 of 11: 25.8
  defense response, GO annotation line 9 of 11: 6.75
  defense response, GO annotation line 10 of 11: 4.62
  defense response, GO annotation line 11 of 11: 0
  immune response, GO annotation line 1 of 8: 79.8
  immune response, GO annotation line 2 of 8: 35.5
  immune response, GO annotation line 3 of 8: 39.5
  immune response, GO annotation line 4 of 8: 23.2
  immune response, GO annotation line 5 of 8: 20.5
  immune response, GO annotation line 6 of 8: 23.7
  immune response, GO annotation line 7 of 8: 3.8
  immune response, GO annotation line 8 of 8: 4.58
  inflammatory response, GO annotation line 1 of 5: 32.2
  inflammatory response, GO annotation line 2 of 5: 14.4
  inflammatory response, GO annotation line 3 of 5: 5.99
  inflammatory response, GO annotation line 4 of 5: 0
  inflammatory response, GO annotation line 5 of 5: 0
  innate immune response, GO annotation line 1 of 6: 59.5
  innate immune response, GO annotation line 2 of 6: 40.7
  innate immune response, GO annotation line 3 of 6: 27.7
  innate immune response, GO annotation line 4 of 6: 23.3
  innate immune response, GO annotation line 5 of 6: 18.5
  innate immune response, GO annotation line 6 of 6: 7.74
  interleukin-6: interleukin-6 production: 9.62
  interleukin-6: positive regulation of interleukin-6 production: 5.06
  interleukin-6: regulation of interleukin-6 production: 10.2
  interleukin-12: interleukin-12 production: 6.82
  interleukin-12: positive regulation of interleukin-12 production: 4.28
  interleukin-12: regulation of interleukin-12 production: 7.39
  migration, GO annotation line 1 of 10: 22.1
  migration, GO annotation line 2 of 10: 6.99
  migration, GO annotation line 3 of 10: 23.4
  migration, GO annotation line 4 of 10: 18.5
  migration, GO annotation line 5 of 10: 9
  migration, GO annotation line 6 of 10: 9.34
  migration, GO annotation line 7 of 10: 8.14
  migration, GO annotation line 8 of 10: 7.59
  migration, GO annotation line 9 of 10: 6.05
  migration, GO annotation line 10 of 10: 3.46
  stress, GO annotation line 1 of 3: 58.8
  stress, GO annotation line 2 of 3: 40.8
  stress, GO annotation line 3 of 3: 5.39
  wounding, GO annotation line 1 of 3: 16.7
  wounding, GO annotation line 2 of 3: 14.8
  wounding, GO annotation line 3 of 3: 9.8
